Results taken from patent US20210346378A1, “METHOD TO PREVENT AND TREAT ALOPECIA BY CALCIUM CHANNEL BLOCKERS, ANGIOTENSIN CONVERTING ENZYME INHIBITORS, AND ANGIOTENSIN RECEPTOR BLOCKERS” (priority 2019, published 2021).
Where two headings read alike, the source gives them in different places.

Columns and labels:
alopecia [1] = test: composition directly injected into the scalp on one side of the head, other side left untreated; assay type: in vivo, human
Text: (§1) patient one is diagnosed with alopecia. A composition comprising the calcium channel blocker nifedipine is directly injected into the scalp on one side of the head while the side is left untreated. […] patient one is diagnosed with alopecia. A composition comprising the ACE inhibitor enalapril is directly injected into the scalp on one side of the head while the side is left untreated. […] patient one is diagnosed with alopecia. A composition comprising the angiotensin receptor blocker losartan is directly injected into the scalp on one side of the head while the side is left untreated. […] patient two is diagnosed with alopecia. A composition comprising the calcium channel blocker nifedipine is directly injected into the scalp on one side of the head while the side is left untreated. […] patient two is diagnosed with alopecia. A composition comprising the ACE inhibitor enalapril is directly injected into the scalp on one side of the head while the side is left untreated. […] patient two is diagnosed with alopecia. A composition comprising the angiotensin receptor blocker losartan is directly injected into the scalp on one side of the head while the side is left untreated.

alopecia [2] = test: composition directly applied to the scalp on one side of the head, other side left untreated; assay type: in vivo, human
Text: as §1, with “is directly applied to the scalp” for “is directly injected into the scalp”, “while the other side is” for “while the side is”

androgenic alopecia = conditions: cited from earlier work
female pattern hair loss = conditions: women, facial hair growth during treatment; cited from earlier work

Row | Structure (SMILES) | symptoms of alopecia, treated side versus untreated side (alopecia [1]; patient one) | symptoms of alopecia, treated side versus untreated side (alopecia [1]; patient two) | symptoms of alopecia, treated side versus untreated side (alopecia [2]; patient one) | symptoms of alopecia, treated side versus untreated side (alopecia [2]; patient two) | hair count higher than baseline as compared to placebo (androgenic alopecia; after 4 years) [%] | hair count higher than baseline as compared to placebo (androgenic alopecia; after one year of treatment) [%] | time for facial hair growth side effect to resolve (female pattern hair loss)
1 | CCCCc1nc(Cl)c(CO)n1Cc1ccc(-c2ccccc2-c2nn[nH]n2)cc1 [losartan] | reduced symptoms of alopecia | reduced symptoms of alopecia | reduced symptoms of alopecia | reduced symptoms of alopecia |  |  | 
2 | CC(C)(C)NC(=O)[C@H]1CC[C@H]2[C@@H]3CC[C@H]4NC(=O)C=C[C@]4(C)[C@H]3CC[C@]12C [Finasteride] |  |  |  |  | 24.3 | 9.42 | 
3 | CCOC(=O)[C@H](CCc1ccccc1)N[C@@H](C)C(=O)N1CCC[C@H]1C(=O)O [enalapril] | reduced symptoms of alopecia | reduced symptoms of alopecia | reduced symptoms of alopecia | reduced symptoms of alopecia |  |  | 
4 | Nc1cc(N2CCCCC2)nc(N)[n+]1[O-] [Minoxidil] |  |  |  |  |  |  | at least 4 months
